Read-outs that look alike come from different tables or passages of the source.
Legend:
[1] = target: T1, MCP-1 receptor (300-19 cell membranes) (Homo sapiens, UniProt P41597); experiment: Inhibition of binding of 125I-MCP-1 to 300-19 cell membranes
T1 construct: host or cells: 300-19 cells (membrane preparation)
Procedure: Compounds were also assayed for their ability to inhibit the binding of radiolabeled MCP-1 to cell membranes. The materials and methods are set out below.
Membrane Preparation. 300-19 cells were harvested by centrifugation and washed with PBS (Dulbecco's phosphate-buffered saline w/o Ca and Mg). Cells were frozen at −80° C. overnight then resuspensed in ice cold lysis buffer (5 mM HEPES, 2 mM EDTA, 10 μg/mL of leupeptin, aprotinin, and chymostatin, and 200 μg/mL PMSF). The cell suspension was centrifuged at 1,000 rpm for 10 minutes and the supernatant was transferred and centrifuged at 14,000 rpm for 45 minutes at 4° C. then discarded. The resulting pellet was resuspended in stock buffer (10 mM HEPES, 300 mM sucrose, 20 μg/mL of leupeptin, aprotinin, and chymostatin, and 200 μg/mL PMSF), aliquoted, and frozen at −80° C. until use. Typical binding assays used 1.0 μg/well protein.
Prepared membranes were resuspended in binding buffer (50 mM Tris, 10 mM MgCl2, 1 mM EDTA pH 7.4) at 10 μg/mL protein. Membranes (1.0 μg/well) were incubated with ^125I-MCP-1 (0.15 nM) in the absence or presence of unlabeled chemokine (465 nM) or a compound of Examples 1–11, 14, 16, 19, 22, 27–30, 33–34, or [bis-(4-chloro-phenyl)-methanesulfonyl]-acetic acid methyl ester (0.001 μM–40 μM) for 3 hours at room temperature in a 96-well plate (total volume 250 μL). The reaction was terminated by filtration using a 96-well plate harvester (Packard Filtermate 196 Harvester). Filters (Packard GF/C) were prewet with 0.3% PEI containing 0.5% BSA and washed 5 times with wash buffer (DPBS, 0.3 MnCl2, and 0.25% BSA) prior to reaction termination. After terminating the reaction, filters were washed 6 times with wash buffer, and allowed to dry overnight. Scintillation fluid (Packard's Micro Scint 20) was added to each well and radioactivity bound was determined by liquid scintillation spectrometry. Nonspecific binding was determined in the presence of 465 nM unlabeled MCP-1. The IC50's (μM) of the inhibition of the binding of the iodinated MCP-1 are set out in Table 2.

[2] = system: MCP-1 response in THP-1 cells; experiment: Calcium flux in THP-1 cells stimulated with human MCP-1 (FLIPR); format: cell-based; conditions: read-out: Calcium Flux IC50
Procedure: Compounds of were evaluated for their effect on calcium flux using methodology known in the art, e.g., Neote et al., Cell 1993, 72:415–425. Briefly, THP-1 cells were incubated with the fluorescence dye FLUO-4 for 1 hour, the cells were washed after this loading period, resuspended in HANKs buffer, and loaded into a 384-well plate. The cells were then incubated in the presence of a compound of Example 1–12, 14, 18, 22–23, 27–28, 30, or [bis-(4-chloro-phenyl)-methanesulfonyl]-acetic acid methyl ester. After a 30-minute incubation period, the cells were stimulated with 33 nM human MCP-1 and the calcium flux response recorded and quantified with a FLIPR^384® (384-well Fluorometric Imaging Plate Reader) ([…], Sunnyvale, Calif.). The IC50's (μM) of the inhibition of the maximal MCP-1 response are set out in Table 1.

[3] = 300-19 cell membranes 1.0 μg/well, 125I-MCP-1 0.15 nM, 3 hours at room temperature, read-out: IC50 of the inhibition of the binding of the iodinated MCP-1
[4] = 0.5 h, THP-1 cells, 30-minute incubation, stimulated with 33 nM human MCP-1, inhibition of the maximal MCP-1 response

T1 sequence (P41597 whole entry): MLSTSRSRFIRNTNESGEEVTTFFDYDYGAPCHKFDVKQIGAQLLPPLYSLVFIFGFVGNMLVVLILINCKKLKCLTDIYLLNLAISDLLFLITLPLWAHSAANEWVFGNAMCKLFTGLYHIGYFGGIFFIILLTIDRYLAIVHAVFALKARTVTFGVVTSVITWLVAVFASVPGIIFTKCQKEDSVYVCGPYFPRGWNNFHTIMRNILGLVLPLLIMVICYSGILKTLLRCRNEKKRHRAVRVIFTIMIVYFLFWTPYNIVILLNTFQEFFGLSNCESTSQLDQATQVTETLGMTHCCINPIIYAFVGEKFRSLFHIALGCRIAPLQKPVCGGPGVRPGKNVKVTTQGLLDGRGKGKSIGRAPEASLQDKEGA

SMILES | IC50 [1, 3] | melting point | other results
O=C(CS(=O)(=O)C(c1ccc(Cl)cc1)c1ccc(Cl)cc1)c1ccccn1 [Example 34, 2-[Bis-(4-chloro-phenyl)-methanesulfonyl]-1-pyridin-2-yl-ethanone] | 4.25 µM | 120 to 121 °C | 
O=S(=O)(CC(O)(O)C(F)(F)F)C(c1ccc(C(F)(F)F)cc1)c1ccc(C(F)(F)F)cc1 [Example 29, 3-[Bis(4-trifluoromethyl-phenyl)methanesulfonyl]-1,1,1-trifluoropropane-2,2-diol] | 3 µM |  | 
O=S(=O)(CC(O)(O)C(F)(F)F)C(c1ccc(Cl)cc1)c1ccc(Cl)c(Cl)c1 (centres unmarked) [Example 30, 3-[(4-Chlorophenyl)-(3,4-dichlorophenyl)methanesulfonyl]-1,1,1-trifluoropropane-2,2-diol] | 0.077 µM |  | IC50 [2, 4]: 0.393 µM
O=C(CS(=O)(=O)C(c1ccc(Cl)cc1)c1ccc(Cl)cc1)c1cccs1 [Example 19, 2-[Bis-(4-chloro-phenyl)-methanesulfonyl]-1-thiophen-2-yl-ethanone] | 6.15 µM | 150 to 151 °C | 
CN(C)C(=O)c1ccc(C(=O)CS(=O)(=O)C(c2ccc(Cl)cc2)c2ccc(Cl)cc2)s1 [Example 18, 5-(2-[Bis-(4-chloro-phenyl)-methanesulfonyl]-acetyl)-thiophene-2-carboxylic acid dimethylamide] |  | 192 to 194 °C | IC50 [2, 4]: 5.2 µM
O=C(CC(F)(F)F)CS(=O)(=O)C(c1ccc(Cl)cc1)c1ccc(Cl)cc1 |  | 48 to 50 °C | 
O=C(CC(=O)Nc1ccccc1Cl)CS(=O)(=O)C(c1ccc(Cl)cc1)c1ccc(Cl)cc1 [Example 23, 4-[Bis-(4-chloro-phenyl)-methanesulfonyl]-N-(2-chloro-phenyl)-3-oxo-butyramide] |  | 92 to 95 °C | IC50 [2, 4]: 1.52 µM
CC#CC(=O)CS(=O)(=O)C(c1ccc(Cl)cc1)c1ccc(Cl)cc1 [Example 6, 1-[Bis-(4-chloro-phenyl)-methanesulfonyl]-pent-3-yn-2-one] |  |  | IC50 [2, 4]: 1.34 µM
CC(=O)OCC(=O)CS(=O)(=O)C(c1ccc(Cl)cc1)c1ccc(Cl)cc1 |  | 57 to 60 °C | 
O=C(CCc1ccccc1)CS(=O)(=O)C(c1ccc(Cl)cc1)c1ccc(Cl)cc1 |  | 106 to 107 °C | 
O=C(Cc1ccc(F)cc1)CS(=O)(=O)C(c1ccc(Cl)cc1)c1ccc(Cl)cc1 [Example 33, 1-[Bis-(4-chloro-phenyl)-methanesulfonyl]-3-(4-fluoro-phenyl)-propan-2-one] | 14.5 µM | 106 to 107 °C | 
CCC(=O)CS(=O)(=O)C(c1ccc(Cl)cc1)c1ccc(Cl)cc1 [Example 2, 1-[Bis-(4-chloro-phenyl)-methanesulfonyl]-butan-2-one] |  |  | IC50 ([2]; Homo sapiens, THP-1, 0.5 h): 7.65 µM; IC50 [1]: 7.37 µM
CC(C)Cc1ccc(C(c2ccc(Cl)cc2)S(=O)(=O)CC(=O)C(F)(F)F)cc1 (centres unmarked) |  | 45 to 50 °C | 
CC(=O)CCS(=O)(=O)C(c1ccc(Cl)cc1)c1ccc(Cl)cc1 |  | 103 to 105 °C | 
Cn1ccnc1C(=O)CS(=O)(=O)C(c1ccc(Cl)cc1)c1ccc(Cl)cc1 [Example 16, 2-[Bis-(4-chloro-phenyl)-methanesulfonyl]-1-(1-methyl-1H-imidazol-2-yl)-ethanone] | 12.7 µM | 160 to 161 °C | 
CN(C)C(=O)c1ccc(C(=O)CSC(c2ccc(Cl)cc2)c2ccc(Cl)cc2)s1 |  | 150 to 151 °C | 
O=C(COc1ccc(Cl)cc1)CS(=O)(=O)C(c1ccc(Cl)cc1)c1ccc(Cl)cc1 [Example 12, 1-[Bis-(4-chloro-phenyl)-methanesulfonyl]-3-(4-chloro-phenoxy)-propan-2-one] |  | 105 to 107 °C | IC50 [2, 4]: 8.15 µM
O=C(COc1ccc(F)cc1F)CS(=O)(=O)C(c1ccc(Cl)cc1)c1ccc(Cl)cc1 |  | 54 to 56 °C | 
CC(C)(C)C(=O)CS(=O)(=O)C(c1ccc(Cl)cc1)c1ccc(Cl)cc1 |  | 128 to 130 °C | 
C/C=C/C(=O)CS(=O)(=O)C(c1ccc(Cl)cc1)c1ccc(Cl)cc1 |  | 114 to 116 °C | 
